The source of these data is patent US20240199612A1, “IMIDAZOPYRIDINYL INHIBITORS OF PLASMA KALLIKREIN” (SHIRE HUMAN GENETIC THERAPIES, INC., priority 2021, published 2024).

Assay [1] concerns the target human activated kallikrein enzyme (Homo sapiens, UniProt P03952). Kind of assay: Inhibition of human activated plasma kallikrein, fluorogenic peptide substrate (PFR-AMC) assay, 500 pM enzyme format. In kind it is biochemical. The settings on record: format with 500 pM activated kallikrein, 300 uM PFR-AMC, 30 min preincubation, 10 min reaction, room temperature; read-out: Primary Dose Response Assay: Average EC50. As to the method:
Inhibitory Activity of Exemplary Compounds against Plasma Kallikrein.
Compounds were evaluated for inhibition of the human activated kallikrein enzyme in two formats of an assay employing a fluorogenic peptide substrate. In one assay format, the concentrations of reagents were as follows: 20 mM Tris pH 7.5, 1 mM EDTA, 150 mM sodium chloride, 0.1% PEG-400, 0.1% Triton X-100, 500 pM activated kallikrein enzyme, 300 uM Pro-Phe-Arg-7-amido-4-methylcoumarin (PFR-AMC) substrate. Prior to reaction initiation with substrate, enzyme and inhibitors were preincubated for 30 min at room temperature. After initiation with substrate, reactions were incubated for 10 min at room temperature and fluorescence emission at 460 nm from 380 nm excitation measured with a microplate reader. In another assay format, the concentrations of reagents were as follows: 20 mM Tris pH 7.5, 1 mM EDTA, 150 mM sodium chloride, 0.1% PEG-400, 0.1% Triton X-100, 5 pM activated kallikrein enzyme, 300 uM PFR-AMC substrate. Prior to reaction initiation with substrate, enzyme and inhibitors were preincubated for 30 min at room temperature. After initiation with substrate, reactions were incubated for 18 hr at room temperature and fluorescence emission at 460 nm from 380 nm excitation measured with a microplate reader.

In assay [2] the target is T1, plasma kallikrein (Homo sapiens, UniProt P03952).
T1 construct: from tissue; host or cells: sodium citrate collected human plasma (78% final)
Kind of assay: Neat human plasma assay (contact pathway-activated plasma, FXIIa, PFR-AMC substrate). The format is biochemical. As to conditions: sodium citrate human plasma, 78% final plasma, 10 nM human FXIIa, 100 μM PFR-AMC, room temperature. How it is done: Neat Human and Rat Plasma Assay
To analyze inhibition of plasma kallikrein in an ex vivo setting, the potency of compounds was measure in contact pathway-activated plasma assays. In a fluorogenic peptide substrate assay, test compounds dissolved in DMSO were added to sodium citrate collected human or rat plasma in a 96-well microplate. Alternatively, citrated plasma was collected from rats administered the compounds orally or by IV. 10 nM of human FXIIa (Enzyme Research Laboratories) diluted in PKa buffer (20 mM Tris-HCl, pH 7.5, 150 mM NaCl, 1 mM EDTA, 0.1% PEG-8000, and 0.1% Triton X-100) was added to the plasma, followed by the 100 μM of the profluorescent, synthetic plasma kallikrein substrate PFR-AMC (also diluted in PKa buffer). Final plasma concentration in the reaction was 78%. Fluorescence was immediately monitored by excitation/emission wavelengths of 360 nm/480 nm respectively over a period of 5 minutes in a microplate reader. The resulting linear increase in fluorescence emission (reflecting PKa proteolysis of PFR-AMC substrate) was fit to extract a proteolytic rate (fluorescent units over time), and this rate was subsequently plotted against compound inhibitor concentration. Resulting plots were fit to a standard 4-parameter IC50/IC90 equation to determine min/max values, IC50/90, and slope. All experimental steps were performed at room temperature.

SMILES strings stand for the structures.

Sequence of human activated kallikrein enzyme (P03952 391-638 limits assumed): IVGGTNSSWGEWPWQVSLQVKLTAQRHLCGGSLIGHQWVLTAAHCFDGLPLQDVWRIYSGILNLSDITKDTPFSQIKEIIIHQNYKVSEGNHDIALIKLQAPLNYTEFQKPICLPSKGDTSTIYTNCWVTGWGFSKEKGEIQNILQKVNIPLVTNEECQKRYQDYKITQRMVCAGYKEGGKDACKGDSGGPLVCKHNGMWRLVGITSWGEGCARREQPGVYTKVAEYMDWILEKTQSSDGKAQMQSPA
Sequence of human activated kallikrein enzyme (P03952 20-390 partner limits assumed): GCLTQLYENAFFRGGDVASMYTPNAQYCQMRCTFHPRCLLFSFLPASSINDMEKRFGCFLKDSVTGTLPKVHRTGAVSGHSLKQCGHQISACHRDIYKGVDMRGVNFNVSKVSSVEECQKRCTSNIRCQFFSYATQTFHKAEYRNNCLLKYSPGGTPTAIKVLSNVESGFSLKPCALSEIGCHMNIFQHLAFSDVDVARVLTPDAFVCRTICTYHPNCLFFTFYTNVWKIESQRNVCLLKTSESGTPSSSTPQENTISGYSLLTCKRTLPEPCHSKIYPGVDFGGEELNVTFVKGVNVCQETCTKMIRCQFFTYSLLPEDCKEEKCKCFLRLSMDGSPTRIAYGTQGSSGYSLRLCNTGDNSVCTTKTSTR
T1 sequence (P03952 391-638 limits assumed): as the sequence (P03952 391-638 limits assumed) above
T1 sequence (P03952 20-390 partner limits assumed): as the sequence (P03952 20-390 partner limits assumed) above

Regarding `O=C(Nc1cc(NCc2cn3cc(C4CC4)ccc3n2)ncn1)OCc1cc(Cl)ccc1-n1cnnn1` [Compound I-8, 5-chloro-2-(1H-tetrazol-1-yl)benzyl (6-(((6-cyclopropylimidazo[1,2-a]pyridin-2-yl)methyl)amino)pyrimidin-4-yl)carbamate], the EC50 in assay [1] was less than 5 nM. Further, the IC90 in assay [2] was not above 2500 nM.

For `O=C(NCc1cc(Cl)ccc1-n1cnnn1)Nc1cc(NCc2cn3cc(C4CC4)ccc3n2)ccn1` [Compound I-10, 1-(5-chloro-2-(1H-tetrazol-1-yl)benzyl)-3-(4-(((6-cyclopropylimidazo[1,2-a]pyridin-2-yl)methyl)amino)pyridin-2-yl)urea], the EC50 in assay [1] is less than 5 nM. In assay [2], this compound yielded an IC90 of 2500 to 7500 nM.

As to `O=C(Nc1cc(NCc2cn3cc(C4CC4)ccc3n2)ccn1)OCc1cc(Cl)ccc1-n1cnnn1` [Compound I-11, 5-chloro-2-(1H-tetrazol-1-yl)benzyl (4-(((6-cyclopropylimidazo[1,2-a]pyridin-2-yl)methyl)amino)pyridin-2-yl)carbamate], the concentration giving a half-maximal response (EC50) in assay [1] is less than 5 nM. The IC90 in assay [2] lay in the range of 2500 to 7500 nM.

In the case of `O=C(Nc1cc(OCc2cn3cc(C4CC4)ccc3n2)ccn1)OCc1cc(Cl)ccc1-n1cnnn1` [Compound I-12, 5-chloro-2-(1H-tetrazol-1-yl)benzyl (4-((6-cyclopropylimidazo[1,2-a]pyridin-2-yl)methoxy)pyridin-2-yl)carbamate], in assay [1], the EC50 was less than 5 nM. For the same compound, in assay [2], the IC90 was in the range of 7500 to 15000 nM.

In the case of `O=C(Nc1cc(NCc2cn3cc(C4CC4)ccc3n2)ccn1)OCc1cccc(Cl)c1` [Compound I-13, 3-chlorobenzyl (4-(((6-cyclopropylimidazo[1,2-a]pyridin-2-yl)methyl)amino)pyridin-2-yl)carbamate], the EC50 in assay [1] was less than 5 nM. This compound displayed an IC90 in assay [2] of 7500 to 15000 nM.

As for `CC(OC(=O)Nc1cc(NCc2cn3cc(C4CC4)ccc3n2)ccn1)c1cccc(Cl)c1` (stereo not drawn) [Compound I-15, 1-(3-chlorophenyl)ethyl (4-(((6-cyclopropylimidazo[1,2-a]pyridin-2-yl)methyl)amino)pyridin-2-yl)carbamate], the 50% effective concentration (EC50) in assay [1] is less than 5 nM. This compound yielded an IC90 in assay [2] of 2500 to 7500 nM.

In the case of `CC(OC(=O)Nc1cc(NCc2cn3cc(C4CC4)ccc3n2)ccn1)c1cc(Cl)ccc1-n1cnnn1` (stereo not drawn) [Compound I-21, 1-(5-chloro-2-(1H-tetrazol-1-yl)phenyl)ethyl (4-(((6-cyclopropylimidazo[1,2-a]pyridin-2-yl)methyl)amino)pyridin-2-yl)carbamate], in assay [1], the EC50 was less than 5 nM. Besides, in assay [2], the IC90 was in the range of 2500 to 7500 nM.

Take `O=C(Nc1cc(NCc2cn3cc(C4CC4)ccc3n2)ncn1)OCc1cc(Cl)ccn1` [Compound I-26, (4-chloropyridin-2-yl)methyl (6-(((6-cyclopropylimidazo[1,2-a]pyridin-2-yl)methyl)amino)pyrimidin-4-yl)carbamate]: the EC50 in assay [1] was less than 5 nM. Further, the IC90 in assay [2] was not above 2500 nM.

Regarding `O=C(Nc1cc(N2C[C@@H](O)C[C@@H]2c2cn3cc(C4CC4)ccc3n2)ncn1)OCc1cc(Cl)ccn1` [Compound I-28, (4-chloropyridin-2-yl)methyl (6-((2R,4S)-2-(6-cyclopropylimidazo[1,2-a]pyridin-2-yl)-4-hydroxypyrrolidin-1-yl)pyrimidin-4-yl)carbamate], the EC50 in assay [1] is less than 5 nM. Moreover, the IC90 in assay [2] is not above 2500 nM.

By EC50 is commonly meant the concentration giving half of the maximal effect. Usually IC90 stands for the point of the concentration-response curve where the effect stands at 90%. A lower IC90 goes with an effect from little substance.
